How the values were obtained:
[1] = tested on: HIF-1α; conditions: for HIF-1α stabilization: higher concentrations causing increased stabilization
Description: HIF-1α is stabilized in Mrs2−/− mice. To examine the intrinsic role of Mrs2, Mrs2^−/− mice were challenged to LPS-induced inflammatory response. It was noticed that there was a barely detectable HIF-1α stabilization in control but a significant HIF-1α protein accumulation following LPS stimulation in Mrs2^−/− hepatocytes (Daw et al., 2020). […] It was envisioned that loss of Mrs2 in hepatocyte mitochondria might control metabolite fluxes that regulates HIF-1α stability under normoxic conditions. HIF-1α is the most commonly studied transcription factor that responds to oxygen tension and its stabilization controls numerous metabolic cascades, including glycolysis and oxidative phosphorylation (Kaelin and Ratcliffe, 2008; Lum et al., 2007; Semenza, 2013). A targeted metabolite screen was conducted to identify whether these metabolites potentially altered in Mrs2^−/− control HIF-1α stabilization. WT hepatocytes were treated with the PHD inhibitor FG-4952 for 6 hours in the presence or absence of metabolites (Buckley et al., 2012). […] Next it was explored whether citric acid mediated HIF-1α destabilization is a hydroxylation dependent mechanism by reconstitution of hydroxylation-dead mutant HIF-1α in COS-7 cells (Yan et al., 2007). […] Next tested the potency of citric acid and sodium citrate was tested. Hepatocytes isolated from WT or Mrs2^−/− mice were treated for 6 hours. HIF-1α stabilization was less affected by di- or tri-sodium citrate than by citric acid (FIG. 9G). […] The citric acid-mediated HIF-1α destabilization was intact in multiple chemical modalities (FIG. 9H) and the intracellular chelation of Mg^2+ ions suppressed FG-4952-induced HIF-1α stabilization (FIG. 9I). […] Furthermore, COS-7 cells were more sensitive to the HIF-1α stabilizing effect compared to hepatocytes. […] Next HIF-1α abundance was tested in liver tissues harvested from dietary cohorts. HIF-1α protein expression/stabilization was prominent in both Mrs2^−/− and Mrs2^−/− WD, whereas HIF-1α protein was nearly completely absent in WT WD (FIG. 9M). This supports the elevation of HIF-1α protein level as a key mechanism driving transcription changes in Mrs2^−/− WD livers.
Immunoblotting. Crushed tissues were homogenized in lysis buffer (ThermoFisher) on ice for one minute (20-30 strokes) using an automatic Dounce homogenizer set to 2000 RPM. Whole cell lysate was prepared in lysis buffer (Abcam) using 3 sets of 3-second sonication (power level 3) intervals on ice. Protein concentration was estimated using Pierce BCA assay kit and samples were prepared and heated for 90° C. for 5 minutes. Equal amounts of protein were loaded and separated on 4%-12% Bis-Tris polyacrylamide gel (Thermo Fisher Scientific), transferred to a PVDF membrane, blocked for 1-2 h using 5% fat free skim milk, washed and finally, probed with corresponding antibodies as specified below. Antibodies were from Cell Signaling Technology (HIF-1α and Hydroxy HIF-1α dilution 1:3000, MCU dilution 1.5000, MICU1 dilution 1:3000), Abcam Abcam (CPT-1a, CPT-2, OXPHOS cocktail dilution 1:3000), ZYMED Laboratories (β-actin; dilution 1:1,000), and Amersham (secondary antibodies conjugated with peroxidase). Development was done using X-ray film using a series of timed exposures and Image J was used for densitometric analysis on scanned film images.

[2] = target: T1, human MRS2 (Homo sapiens, UniProt Q9HD23); experiment: Dynamic light scattering of purified full-length MRS2 assembly; assay type: binding; conditions: 5 mM
T1 construct: 6xHis (N, cleaved yes); made in house; host or cells: BL21 (DE3) codon+ Escherichia coli, pET-28a
T1 sequence (Q9HD23 58-443): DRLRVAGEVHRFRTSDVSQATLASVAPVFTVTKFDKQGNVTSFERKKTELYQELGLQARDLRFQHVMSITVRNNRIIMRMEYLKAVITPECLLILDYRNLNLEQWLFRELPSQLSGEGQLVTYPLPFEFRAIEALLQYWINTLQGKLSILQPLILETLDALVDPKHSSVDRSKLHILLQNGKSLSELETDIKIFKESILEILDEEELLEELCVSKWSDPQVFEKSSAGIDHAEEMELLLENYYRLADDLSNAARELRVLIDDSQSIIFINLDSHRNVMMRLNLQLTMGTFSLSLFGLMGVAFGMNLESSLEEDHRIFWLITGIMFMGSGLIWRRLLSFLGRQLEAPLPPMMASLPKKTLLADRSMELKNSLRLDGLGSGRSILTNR
Experimental: Next, CPACC was assessed to determine if it directly affects the assembly of purified human MRS2 using dynamic light scattering (DLS). DLS has been used to determine whether the complex stability of proteins/channels is altered by molecular chaperones or drugs (Kitamura et al., 2006). Because of the high sensitivity of DLS to changes in complex sizes, full-length Mrs2 assembly was evaluated in the presence Ca^2+ (5 mM), Mg^2+ (5 mM), Co^2+ (5 mM) or the Mrs2 blocker CPACC (0.5 mM) (FIG. 10K, FIG. 10L, FIG. 10M, FIG. 10N, FIG. 10O). […] A concentration-response assessment confirmed robust decreases in hydrodynamic radii at all CPACC concentrations tested and as low as 10 μM (FIG. 10O).
MRS2 cloning, expression, and purification. The full length human MRS2 (NCBI accession NP_065713.1), identified as MRS258-443 (i.e. residues 58-443) and excluding the mitochondrial targeting sequence, was cloned into pET-28a using Ndel and Xhol restriction sites. […]
Dynamic light scattering (DIS). […] The sample was equilibrated for 5 min at 20° C. before 10 autocorrelation function acquisitions of 5 s each were recorded and averaged. […] The dependence of hydrodynamic size on CPACC concentration was determined using ≈0.5 mg/mL protein supplemented with 0.01 mM, 0.05 mM, 0.1 mM, 0.5 mM or 0.75 mM CPACC, using a similar experimental setup as described above and cumulants analysis.

[3] = tested on: mitochondrial Mg^2+ uptake; experiment: Metabolite screen for ER Mg2+ depletion and mitochondrial Mg2+ uptake, Mag-Green confocal imaging of hepatocytes; assay type: cell-based, murine
Description: Targeted Metabolite Screen Identifies Lactate as activator agonist for Mitochondrial Mg^2+ Uptake. To search for agonists that promote mitochondrial Mg^2+ ([Mg^2+]m) uptake, the inventors developed a cell-based confocal fluorescence imaging. As an initial feature, the inventors tested whether GPCR agonist-induced second messengers promote Mg^2+ dynamics. To discriminate intracellular Ca^2+ and Mg^2+ dynamics, MEFs were loaded with cell permeant Ca^2+ indicator, Fluo-4-AM or Mg^2+ indicator Mag green-AM followed by GPCR agonist, thrombin stimulation. […] It is established that intracellular Ca^2+ dynamics could be monitored using a wide range of fluorescent dyes or genetically encoded Ca^2+ indicators. Conversely, Mg^2+ sensitive indicators are very limited due to either lack of agonists or robust dynamic nature. To identify the agonist, primary murine hepatocytes were loaded with [Mg^2+]i indicator, cell permeant Mag Green-AM (5 μM). Subsequently, dye loaded hepatocytes were stimulated with major cellular metabolites and mitochondrial oxidative phosphorylation (OXPHOS) inhibitors following baseline recording. […] As depicted in FIG. 1B, the reciprocal mobilization of free Mg^2+ ion from ER to mitochondria was observed upon stimulation of Lactate (5 mM) in a temporal fashion. To confirm that lactate-induced Mag-Green signals are indeed measured from mitochondrial compartment, hepatocytes were simultaneously loaded with mitochondrial marker Mito-tracker Red and Mag-Green-AM (FIG. 1C-1F). […] Conversely, sodium lactate or lactic acid (5 mM) triggered a rapid depletion of ER signal with concomitant accumulation nucleus followed by mitochondrial elevation of Mag Green signal with a lag time of ˜25 s (FIG. 1D). Besides nucleotides such as ATP, citrate is also known to chelate free Mg^2+. Since ATP is cell impermeable, citrate (5 mM) was applied and intracellular Mg^2+ mobilization monitored. […] To exclude the possibility that acidic pH of medium by lactate could alter membrane polarization, the pH was normalized. Additionally, the inventors also tested whether both sodium lactate as well as lactic acid induce mitochondrial Mg^2+ uptake. Consistent with sodium form of lactate, lactic acid also elicited a rapid ER depletion followed by mitochondrial Mg^2+ influx indicating a lactate role as an activator of Mg^2+ dynamics. Thus, natural metabolite, lactate rapidly mobilizes ER Mg^2+ which led to cytosolic elevation resulting in activation mitochondrial Mg^2+ uptake.
Mitochondrial Mg^2+ Transporter is Temperature Sensitive. […] To assess optimal concentration of lactate required to trigger Mg^2+ depletion from ER compartment and mitochondrial Mg^2+ uptake, both ER-depletion and mitochondrial Mg^2+ uptake was measured in hepatocytes at 37° C. […] However, a consistent stronger response was perceived at 5 mM lactate stimulation (FIG. 2A and 2B). During these studies depletion of ER Mg^2+ was noticed at 37° C. and room temperature (25° C.) upon 5 mM lactate stimulation (FIG. 2C). Remarkably, mitochondrial Mg^2+ uptake was higher at 37° C. and had no effect at 25° C. showing a temperature sensitivity (FIG. 2D). Based on this experimental evidence, a wide range of temperatures were tested. To determine the temperature responsiveness, primary hepatocytes were kept between 25° C.-40° C. and cells were stimulated with 5 mM lactate. […] (FIG. 2F). Intriguingly, the lactate response was not seen at 25° C. or 30° C. (FIG. 2F).
ER-Dependent Efflux of Free Mg^2+ Promotes Mitochondrial Mg^2+ Uptake. […] Since extracellular delivery of lactate rapidly induces ER-depletion and subsequent mitochondrial uptake, it was asked whether rapid influx of lactate regulates this mechanism. Most mammalian cells utilize monocarboxylate transporters (MCT1-4) for plasma membrane lactate entry. To test this, primary hepatocytes were treated with MCT1 or MCT1/2 inhibitors for 60 minutes. […]

[4] = tested on: MEFs; experiment: Intracellular Ca2+ and Mg2+ dynamics in MEFs (Fluo-4-AM, Mag green-AM); assay type: cell-based
Description: Targeted Metabolite Screen Identifies Lactate as activator agonist for Mitochondrial Mg^2+ Uptake. To search for agonists that promote mitochondrial Mg^2+ ([Mg^2+]m) uptake, the inventors developed a cell-based confocal fluorescence imaging. As an initial feature, the inventors tested whether GPCR agonist-induced second messengers promote Mg^2+ dynamics. To discriminate intracellular Ca^2+ and Mg^2+ dynamics, MEFs were loaded with cell permeant Ca^2+ indicator, Fluo-4-AM or Mg^2+ indicator Mag green-AM followed by GPCR agonist, thrombin stimulation. […] It is established that intracellular Ca^2+ dynamics could be monitored using a wide range of fluorescent dyes or genetically encoded Ca^2+ indicators. Conversely, Mg^2+ sensitive indicators are very limited due to either lack of agonists or robust dynamic nature. To identify the agonist, primary murine hepatocytes were loaded with [Mg^2+]i indicator, cell permeant Mag Green-AM (5 μM). […] To confirm that lactate-induced Mag-Green signals are indeed measured from mitochondrial compartment, hepatocytes were simultaneously loaded with mitochondrial marker Mito-tracker Red and Mag-Green-AM (FIG. 1C-1F). […] Since ATP is cell impermeable, citrate (5 mM) was applied and intracellular Mg^2+ mobilization monitored. […]

With `[Cl][Co][Cl]` [CoCl2, cobalt chloride, reference compound] the HIF-1α stabilization ([1]; hepatocytes) was “promoted HIF-α stabilization”.
For `[Cl-].[Cl-].[Co+2]` [Co^2+, reference compound], the “full-length MRS2 complex sizes (DLS)” value [2] was “potently decreased”.
`COC(=O)CNC(=O)C(=O)OC` [DMOG, reference compound] was tested, and the HIF-1α stabilization ([1]; hepatocytes) was “promoted HIF-α stabilization”.
With `Cc1nc(C(=O)NCC(=O)O)c(O)c2ccc(Oc3ccccc3)cc12` [FG-4592, reference compound] the HIF-1α stabilization ([1]; hepatocytes) was “promoted HIF-α stabilization”.
In the case of `[Cl-].[Cl-].[Mg+2]` [Mg^2+], the “HIF-1α stabilization at high levels” value ([1]; 10 mM, normoxia) is reported as “sufficient to promote low levels of HIF-1α stabilization”.
In the case of `N#C/C(=C\c1cn(-c2ccccc2)c2ccccc12)C(=O)O` [UK5099, reference compound], the “effect of blockade of mitochondrial pyruvate entry on HIF-1α stabilization” value ([1]; hepatocytes) is reported as “did not prevent HIF-1α stabilization”.
With `O=C(O)CC(O)(CC(=O)O)C(=O)O` [citrate] the “effect on mitochondrial and ER Mg^2+ signals” value ([3]; 5 mM) was “partly chelated both mitochondrial and ER Mg^2+ signals”.
`CC(O)C(=O)O` (centres unmarked) [lactate] was tested, and the “lactate-induced mitochondrial Mg^2+ uptake” value ([3]; 5 mM, 25° C. or 30° C.) was “not seen”, the “Lactate-induced ER Mg^2+ depletion” value ([3]; 5 mM, 25° C.-40° C.) was “seen at all the indicated temperature range” and the “lactate-induced mitochondrial Mg^2+ uptake” value ([3]; 5 mM, 34° C. and 40° C.) was “sub-optimal”. For the same compound, the “lactate-induced mitochondrial Mg^2+ uptake” value ([3]; 5 mM, 37° C.) was “maximal”, the “concentration that promotes ER depletion and partial uptake of Mg^2+ into mitochondria” value ([3]; hepatocytes, 37° C.) was at least 2 mM and the “ER Mag-Green signal depletion and mitochondrial Mg^2+ uptake” value ([3]; metabolite screen, primary murine hepatocytes) was “rapid and robust depletion of ER Mag-Green signal followed by a subsequent elevation in the mitochondria”.
`CC(O)C(=O)O` (centres unmarked) [lactic acid] was tested, and the “lag time to mitochondrial elevation of Mag Green signal” value ([3]; 5 mM) was about 25 s.
In the case of `CC(O)C(=O)[O-].[Na+]` (centres unmarked) [sodium lactate], the “lag time to mitochondrial elevation of Mag Green signal” value ([3]; 5 mM) is reported as about 25 s.
For thrombin, the “cytosolic Ca^2+ mobilization” value ([4]; Fluo-4-AM) was “rapidly elicited cytosolic Ca^2+ mobilization” and the “intracellular Mg^2+ dynamics” value ([4]; Mag green-AM) was “absent”.
